According to US5936065A, “CS-1 peptidomimetics, compositions and methods of using the same” (Cytel Corporation, priority 1995, dated 1999):
Square brackets hold non-standard residues; d marks the D form. Peptide text beside a SMILES is read from it. * marks the point of attachment. NMeF = CN[C@@H](Cc1ccccc1)C(=O)O; NMeD = CN[C@@H](CC(=O)O)C(=O)O; Morpholide = C1CN(*)CCO1; PhAc = O=C(Cc1ccccc1)*

Columns and labels:
[1] = system: New Zealand white rabbits; assay: Treatment of asthmatic rabbits (house dust mite antigen challenge, crossover study); type: in vivo, rabbit; settings: 100 mg/kg nebulizer
Method: Six New Zealand white rabbits were immunized with house dust mite antigen from birth through four months of age. Upon immunization, three rabbits received a single nebulizer administration of the inhibitor compound, Compound ID No. 1051.01, N-phenylacetyl-Leu-Asp-Phe-morpholinamide in aqueous 50 percent ethanol as diluent in an amount of 100 mg/kg, and the other three received diluent alone. All of the rabbits were challenged with house dust mite antigen about 15-30 minutes after administration of the compound, with those animals not receiving compound serving as controls.
Once immunized and challenged, the inflammatory state subsides to a basal level within about three weeks. The three animals used as controls were thereafter used as subjects for receipt of an inhibitor compound, and the three rabbits that initially received the compound can serve as controls.
Such a crossover study was done here. […]
Initial pulmonary function, measured by dynamic compliance (Cdyn) and lung resistance (RL) , and bronchoalveolar lavage (BAL) to obtain an effector cell count, here eosinophils, were conducted prior to administration of the compound or diluent for both portions of this crossover study. […]

VLA-4 receptor = biological target: T1, VLA-4 receptor (Homo sapiens, UniProt P05556+P13612); assay: In vitro binding assay: inhibition of binding of 51Cr-labeled Jurkat cells to solid phase-bound CS-1 compound (SEQ ID NO:1); type: cell-based
T1 construct: inflammatory cells that contain the VLA-4 receptor [Jurkat cells; host or cells: Jurkat cells (human T lymphoblastic line)
T1 sequence (P13612 34-1032): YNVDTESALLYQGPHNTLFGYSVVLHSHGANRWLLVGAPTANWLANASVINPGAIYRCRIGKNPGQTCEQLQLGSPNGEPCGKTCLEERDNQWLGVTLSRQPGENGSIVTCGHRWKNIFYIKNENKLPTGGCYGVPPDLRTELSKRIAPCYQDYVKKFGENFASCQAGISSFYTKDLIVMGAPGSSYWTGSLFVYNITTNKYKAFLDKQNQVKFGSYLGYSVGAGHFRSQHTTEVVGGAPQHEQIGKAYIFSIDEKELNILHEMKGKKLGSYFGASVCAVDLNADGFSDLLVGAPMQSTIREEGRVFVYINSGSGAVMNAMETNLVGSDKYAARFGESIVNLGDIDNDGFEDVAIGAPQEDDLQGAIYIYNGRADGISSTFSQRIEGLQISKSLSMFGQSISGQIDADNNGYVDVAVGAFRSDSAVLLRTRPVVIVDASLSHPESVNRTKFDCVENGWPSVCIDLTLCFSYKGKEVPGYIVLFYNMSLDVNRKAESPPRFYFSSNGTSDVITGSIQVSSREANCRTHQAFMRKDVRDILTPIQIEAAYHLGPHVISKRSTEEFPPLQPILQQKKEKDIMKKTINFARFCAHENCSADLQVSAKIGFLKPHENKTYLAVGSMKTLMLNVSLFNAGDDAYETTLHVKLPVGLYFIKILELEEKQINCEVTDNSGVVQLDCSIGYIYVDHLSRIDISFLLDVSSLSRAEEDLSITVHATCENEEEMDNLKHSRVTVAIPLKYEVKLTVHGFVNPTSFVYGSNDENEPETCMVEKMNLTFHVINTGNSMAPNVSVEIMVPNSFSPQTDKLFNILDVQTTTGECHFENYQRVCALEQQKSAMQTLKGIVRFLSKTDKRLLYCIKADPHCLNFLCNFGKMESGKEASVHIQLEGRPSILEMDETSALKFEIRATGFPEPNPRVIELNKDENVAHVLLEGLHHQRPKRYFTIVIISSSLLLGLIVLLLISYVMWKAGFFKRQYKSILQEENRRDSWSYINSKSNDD
T1 sequence (P05556 21-798): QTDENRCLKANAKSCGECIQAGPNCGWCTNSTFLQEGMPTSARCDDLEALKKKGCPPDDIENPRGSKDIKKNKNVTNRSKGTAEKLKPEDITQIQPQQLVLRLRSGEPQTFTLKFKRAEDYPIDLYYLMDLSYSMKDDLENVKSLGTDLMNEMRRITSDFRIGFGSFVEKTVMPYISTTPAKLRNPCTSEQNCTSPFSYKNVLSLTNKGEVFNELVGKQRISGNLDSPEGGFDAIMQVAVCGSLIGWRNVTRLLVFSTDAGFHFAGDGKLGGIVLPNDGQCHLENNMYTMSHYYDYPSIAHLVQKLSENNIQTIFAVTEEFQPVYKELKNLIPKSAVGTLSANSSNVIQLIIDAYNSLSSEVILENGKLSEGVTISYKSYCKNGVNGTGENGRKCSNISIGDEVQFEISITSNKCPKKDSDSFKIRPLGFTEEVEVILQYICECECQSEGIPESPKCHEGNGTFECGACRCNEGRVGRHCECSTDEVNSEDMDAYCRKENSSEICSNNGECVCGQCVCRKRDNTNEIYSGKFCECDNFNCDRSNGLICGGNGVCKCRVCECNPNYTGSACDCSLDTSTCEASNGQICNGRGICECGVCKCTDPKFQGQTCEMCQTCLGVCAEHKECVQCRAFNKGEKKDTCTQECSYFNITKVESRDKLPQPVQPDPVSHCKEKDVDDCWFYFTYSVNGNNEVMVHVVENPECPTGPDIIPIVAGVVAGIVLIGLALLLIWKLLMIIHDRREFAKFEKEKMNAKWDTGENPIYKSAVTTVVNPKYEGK
Method: Binding inhibition is measured here as a concentration of compound that inhibits one-half the binding between a standard number of Jurkat cells and a standard amount of CS-1 compound bound to the surface of a microtiter plate well. Those concentrations are conveniently expressed as IC50 values, smaller numbers indicating a lower concentration required to inhibit 50 percent binding and therefore greater potency. Further specifics of this assay are provided hereinafter.
Jurkat cells (ATCC TIB 152), a human T lymphoblastic line, labeled with ^51 chromium were used to assay in vitro binding inhibition provided by various compounds discussed herein.
The plates were prepared as follows: The 25-mer CS-1 compound (SEQ ID NO:1) dissolved at 0.5-1 μg/ml in a buffer of 0.1M NaHCO3 at pH 9.5 that also contained 10 μg/ml of bovine serum albumin (BSA) or a conjugate of the CS-1 compound linked to ovalbumin (CS-1-OVA) dissolved at 1-2.5 μg/ml in the same buffer was used as the substrate. Each well of the microtiter plates was coated with 50 μl of substrate or buffer alone for controls. The wells were permitted to dry out completely and were then rinsed twice with PBS at pH 7.4. Non-specific binding sites of each well were then blocked using 200 μl per well of RPMI/1 percent BSA for two hours at room temperature.
Jurkat cells (3-5×10^6 cells) were placed into a 15 ml Falcon™ round-bottom tube with a cap. The tube was centrifuged, and the extra medium was then removed.
Two hundred microliters of a ^51 Cr labeling solution were added to the centrifuged cells and maintained in contact with the cells for 90-120 minutes in a warm room. […] Longer contact times provide a greater amount of labeling but lower cell viability.
The labeled cells are washed with (i) complete medium, (ii) 1 mM EDTA/PBS and then (iii) RPM1/1 percent BSA free of serum components. The cells are centrifuged after each washing. The cells are finally resuspended in serum-free RPMI/1 percent BSA at a concentration of 1×10^6 viable cells/ml, which provides a concentration that is diluted by one-half in the assay.
Inhibitor compounds are prepared as stock solutions at 20 mg/ml in DMSO in 1.5 ml cryogenic screwcap vials, and were stored at -70° C. Using Flow™ round-bottom or V-bottom microtiter plates, the inhibitor compounds were prepared at twice the assay concentration in RPMI/1 percent BSA at 60 μl/well.
Four initial dilutions were typically used.
The ^51 Cr-labeled cells ([…] at 60 μl/well) were then admixed with the diluted compound solutions. The admixtures were maintained at room temperature (about 22° C.) for 30 minutes.
One hundred microliters of each inhibitor compound/cell admixture were transferred to the substrate-coated wells. This was done in triplicate for each dilution. The resulting plates were incubated for 30 minutes at 37° C. and then washed gently three times with RPMI/1 percent BSA at 200 μl/well. Binding was observed microscopically, particularly after the second wash.
The bound cells were then lysed by the addition of a 0.5 percent solution of sodium dodecylsulfate in water at 100 μl/well. The resulting solutions were then processed for counting and calculation of IC50 values following usual procedures.
The data of Table 1 are normalized to the binding of SEQ ID NO:3. […] Multiple assays for the same compound were averaged.

BALB/c mice = assay: Adoptive transfer delayed type hypersensitivity (oxazolone) in mice; type: in vivo, mouse; settings: versus vehicle alone; implanted pump, 24 hours
Method: An adoptive transfer delayed-type hypersensitivity murine model has been developed using splenic T cells primed to oxazolone. This model is described in Elices et al., Clin. Exp. Rheum., 11(Suppl. 8):577-580 (1993), whose procedures were followed here.
Thus, BALB/c mice were shaved on the belly and painted (50 μl on the belly and 5 μl on each paw) with three percent oxazolone in acetone/olive oil (4:1) at days zero and 1. At day 5, the mice were sacrificed, their spleens removed, and splenic T cells were obtained via nylon wool columns.
Normal saline or saline containing 25×10^6 /animal of the oxazolone-immune T cells were separately injected into naive mice. The mice were then challenged by painting 10 μl of 2 percent oxazolone onto one ear each. All procedures were carried out under sterile conditions and in endotoxin-free buffers.
Prior to challenge or saline injection, the mice were implanted with pumps that subcutaneously administered normal saline, normal saline containing the compound, Compound ID No. 896.52, N-phenylacetyl-Leu-Asp-Phe-D-Pro-NH2, or normal saline containing a compound with a scrambled sequence continually at 6 mg/kg/day for a 24-hour time period. The swelling diameter at the site of challenge or saline injection was measured with a microcaliper 24 hours thereafter.
An expanded study was carried out as described above except that a scrambled compound control was not used as a control for further inhibitor compounds of Table 1 with larger groups of mice. Statistical analyses were carried out versus injection of vehicle alone.

Jurkat T cell line = assay: Binding of Jurkat cells to frozen human RA synovial sections; type: cell-based; settings: 10-mer at 500 μg/ml; 896.52 at its IC50 value
Method: Binding studies were carried out using the Jurkat T cell line and frozen RA synovial sections. […] Stimulated MOLT-4 cells behaved similarly.
The absolute value of that IC50 value is about 0.5 μmolar.

mouse = settings: in vivo; cited from earlier work
[2] = binding inhibition potency (IC50) normalized to standard compound of SEQ ID NO:3 = 1, multiple assays averaged, about one-tenth or less assigned zero

With `CC(C)C[C@H](NC(=O)Cc1ccccc1)C(=O)N[C@@H](CC(=O)O)C(=O)N[C@@H](Cc1ccccc1)C(=O)N1CCOCC1` [1051.01, N-phenylacetyl-Leu-Asp-Phe-morpholinamide] (PhAc-Leu-Asp-Phe-Morpholide) the “Cdyn value over six hours after challenge” value ([1]; FIG. 4A) was “stayed at about the initial value”, the “RL values over six hours after challenge, percent of initial value” ([1]; FIG. 4B) was at most 200% and the “binding inhibition, in words (compared with standard 10-mer of SEQ ID NO:3 or other compounds)” value (VLA-4 receptor) was “greatest potency”.

In the case of `CC(C)C[C@H](NC(=O)Cc1ccccc1)C(=O)N[C@@H](CC(=O)O)C(=O)N[C@@H](Cc1ccccc1)C(=O)N1CCC(O)CC1` [1070.02, .phi.Ac--Leu--Asp--Phe--4-hydroxpiperidinamide], the “Percent Inhibition of post-challenge swelling, expanded study” value (BALB/c mice) is reported as 29%.

For `CC(C)C[C@H](NC(=O)Cc1ccccc1)C(=O)N[C@@H](CC(=O)O)C(=O)N[C@@H](Cc1ccccc1)C(=O)N1CCN(CC(=O)O)CC1` [1111.06, .phi.Ac--Leu--Asp--Phe--4-N(carboxy-methyl)piperazinamide], the “Percent Inhibition of post-challenge swelling, expanded study” value (BALB/c mice) was 30% and the “Relative Potency” value (VLA-4 receptor; [2]) was 2600.

For `CCOC(=O)C[C@H](NC(=O)[C@H](CC(C)C)NC(=O)Cc1ccccc1)C(=O)N[C@@H](Cc1ccccc1)C(=O)N1CCC[C@@H]1C(N)=O` [1190.01] (PhAc-LD(OEt)F[dP]-NH2), the “Relative Potency” value (VLA-4 receptor; prodrug compounds, potency before enzymatic conversion to active form, relative to SEQ ID NO:3 = 1) was 0.

With `CC(C)C[C@H](NC(=O)Cc1ccccc1)C(=O)N[C@@H](CC(=O)O)C(=O)N(C)[C@@H](Cc1ccccc1)C(=O)N1CCC[C@@H]1C(N)=O` [1190.05] (PhAc-LD[NMeF][dP]-NH2) the “Relative Potency” value (VLA-4 receptor; [2]) was 0.

For `CC(C)C[C@H](NC(=O)Cc1ccccc1)C(=O)N(C)[C@@H](CC(=O)O)C(=O)N[C@@H](Cc1ccccc1)C(=O)N1CCC[C@@H]1C(N)=O` [1190.06] (PhAc-L[NMeD]F[dP]-NH2), the “Relative Potency” value (VLA-4 receptor; [2]) was 0.

With `CC[C@H](C)[C@H](NC(=O)[C@H](CCC(=O)O)NC(=O)[C@@H]1CCCN1C(=O)CN)C(=O)N[C@@H](CC(C)C)C(=O)N[C@@H](CC(=O)O)C(=O)N[C@H](C(=O)N1CCC[C@H]1C(=O)N[C@@H](CO)C(=O)N[C@H](C(=O)O)[C@@H](C)O)C(C)C` [SEQ ID NO:3, GPEILDVPST] (H-GPEILDVPST-OH) the “inhibition of Jurkat cell adhesion to RA synovial sections” value (Jurkat T cell line) was “could be inhibited”.

For Arg-Gly-Asp [Arg-Gly-Asp peptide], the “inhibition of contact hypersensitivity / T lymphocyte recruitment to skin inflammatory sites” value (mouse) is listed as “also inhibitory”.
